Data from US20210145774A1, “Treatment of alcoholic liver disease” (CymaBay Therapeutics, Inc., priority 2019, published 2021).

How the values were obtained:
[1] = tested on: atherogenic diet-fed obese diabetic (Alms1 mutant (foz/foz)) mice; details: foz/foz mice on atherogenic diet; cited from earlier work
[2] = tested on: subjects with diagnosed alcoholic liver disease (alcoholic fatty liver); assay: Clinical (oral), subjects with alcoholic fatty liver; format: in vivo, human; details: oral 2-100 mg/day for 6 months
Method: Subjects are permitted their usual other medications (e.g. antidiabetic medications such as metformin or […]) but not glitazones, PPAR agonists, OCA, or similar medications. […] At each visit, after a 12-hour fast, blood is drawn and urine collected; and a standard metabolic panel, complete blood count, and standard urinalysis are performed. Blood is analyzed for bilirubin, creatinine, prothrombin time (International Normalized Ratio—INR), TGs, and liver transaminases. The subjects also maintain health diaries, which are reviewed at each visit.

[3] = tested on: subjects with diagnosed alcoholic liver disease (acute alcoholic hepatitis); assay: Clinical (intravenous), subjects with acute alcoholic hepatitis; format: in vivo, human; details: intravenous 2-100 mg/day for up to 30 days
Method: At each assessment blood is drawn; and a standard metabolic panel and complete blood count are performed. Blood is analyzed for bilirubin, creatinine, prothrombin time (International Normalized Ratio—INR), TGs, liver transaminases, high sensitivity C-reactive protein (hsCRP), interleukin-18, and TNF-α.

PPARα = target: T1, PPARα (Homo sapiens, UniProt Q07869); assay: Specificity compared with PPARα
T1 sequence (Q07869 1-468): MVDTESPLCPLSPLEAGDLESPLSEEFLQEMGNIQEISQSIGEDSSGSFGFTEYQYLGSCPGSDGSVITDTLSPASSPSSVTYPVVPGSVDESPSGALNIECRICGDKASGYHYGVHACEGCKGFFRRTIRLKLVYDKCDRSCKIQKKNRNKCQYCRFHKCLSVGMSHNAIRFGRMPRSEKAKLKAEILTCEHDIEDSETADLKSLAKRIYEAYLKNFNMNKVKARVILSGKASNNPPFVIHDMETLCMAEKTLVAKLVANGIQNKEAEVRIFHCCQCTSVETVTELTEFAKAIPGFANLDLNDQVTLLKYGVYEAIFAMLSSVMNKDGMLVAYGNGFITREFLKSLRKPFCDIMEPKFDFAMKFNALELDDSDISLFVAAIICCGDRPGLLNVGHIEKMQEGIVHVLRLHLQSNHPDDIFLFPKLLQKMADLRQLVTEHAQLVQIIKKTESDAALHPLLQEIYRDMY
From the text: It is specific (>600-fold and>2500-fold compared with PPARα and peroxisome proliferator-activated receptor-γreceptors). PPARδ activation stimulates fatty acid oxidation and utilization, improves plasma lipid and lipoprotein metabolism, glucose utilization, and mitochondrial respiration, and preserves stem cell homeostasis.

[4] = tested on: wild-type female C57BL/6 mice; assay: Lieber-DeCarli ethanol diet mouse model of alcoholic liver disease; format: in vivo; details: for liver histology, hematoxylin and eosin (H+E): formalin-fixed liver sections; for hepatic lipid accumulation, oil red staining: frozen liver sections; for ALT: plasma; for ALT / Total bile acids / Hepatic TGs / Plasma LPS / FA (fecal albumin): mean (SEM); for Total bile acids: LC-MS; for FA (fecal albumin): feces at 7.5 weeks
From the text: Age-matched wild-type female C57BL/6 mice (Charles River, Wilmington, Mass.), 8-9 weeks old at the initiation of the study, were used.
The Lieber-DeCarli ethanol diet was originally developed by Charles Lieber and Leonore DeCarli in 1963. This diet allows for the prolonged exposure of ethanol in a rodent model and allows for modification to calories provided by ethanol. […] The caloric intake from ethanol was 0% on day 1, 10% on days 2 and 3, 20% on days 4 and 5, 30% from day 6 until the end of 6 weeks, and 36% for the last 2 weeks, for a total in-life time of eight weeks. The ethanol-fed mice also received one bolus dose of 33% v/v ethanol at 5 g/Kg on the last in-life day. The control diet contained an isocaloric substitution of isomaltose for the ethanol. […] In the prevention portions of the study, including with the control diet, seladelpar was added throughout the entire study period; in the intervention portion of the study, seladelpar was added only for the fifth through eighth weeks. Fresh feces were collected at 7.5 weeks. All mice were sacrificed after eight weeks; the ethanol-fed mice eight hours after the ethanol bolus. At sacrifice, body and liver weight were recorded; and blood/plasma, liver, gallbladder, small and large intestine (wall and contents) and cecum were harvested. Analyses included plasma ALT—to measure […]; hepatic TGs; plasma lipopolysaccharides (LPS)—to measure the extent of bacterial leakage from the intestine into the blood; fecal albumin (FA)—to measure the extent of albumin leakage from the blood into the intestine (feces); and total bile acids, measured by liquid chromatography-mass spectrometry (LC-MS) generally according to the method described in Hartmann et al., “Modulation of the Intestinal Bile Acid/Farnesoid X Receptor/Fibroblast Growth Factor 15 Axis Improves Alcoholic Liver Disease in Mice”, Hepatology, 67(6), 2150-2166 (2018).
The study results are given in the table below: standard errors of the means are in parentheses, n denotes the number of mice measured, and ANOVA denotes the significance value of an ANOVA analysis between groups 3, 4, and 5:
Formalin-fixed liver sections were stained for histological examination with hematoxylin and eosin (H+E).
Frozen liver sections were cut and stained with oil red 0 for hepatic lipid accumulation analysis.

[5] = alcohol diet (group 3 vs groups 4 and 5, prevention and intervention)
[6] = alcohol diet, untreated group 3 vs seladelpar groups 4 and 5, ANOVA <0.001
[7] = group 2: control diet with seladelpar prevention, 10 mg/Kg/day oral, 8 weeks

For `CCO[C@H](COc1ccc(C(F)(F)F)cc1)CSc1ccc(OCC(=O)O)c(C)c1` [seladelpar, [4-({(2R)-2-ethoxy-3-[4-(trifluoromethyl)phenoxy]propyl}sulfanyl)-2-methylphenoxy]acetic acid], the NASH pathology [1] is listed as “improves NASH pathology (reducing hepatic steatosis and inflammation, and improving fibrosis)”, the “improvement in disease (reductions in MRI-PDFF, TGs, liver transaminases)” value [2] is listed as “dose-related improvement” and the “improvement in disease (reduction in liver transaminases, hsCRP, interleukin-18, TNF-α, Maddrey's discriminant function, MELD score)” value [3] is listed as “dose-related improvement”. For the same molecule, the “specificity for PPARδ compared with PPARα” value (PPARα) was > 600 fold, the “liver histology, hematoxylin and eosin (H+E)” value [4, 5] was “significant reduction of steatosis and restoration of a more normal architecture” and the “hepatic lipid accumulation, oil red staining” value [4, 5] was “significant reduction of stainable lipid droplets”. For the same molecule, the “change in serum ALT” value ([4]; alcohol diet, untreated group 3 vs seladelpar groups 4 and 5 (prevention and intervention), ANOVA <0.001) was “significant reductions (improvements)”, the “change in serum LPS” value ([4]; alcohol diet, untreated group 3 vs seladelpar groups 4 and 5, ANOVA 0.034) was “significant reductions (improvements)” and the “change in hepatic TGs” value [4, 6] was “significant reductions (improvements)”. For the same molecule, the “change in total bile acids” value [4, 6] was “significant reductions (improvements)”, the “liver histology, hematoxylin and eosin (H+E)” value ([4]; control diet (groups 1 vs 2)) was “no significant change” and the “hepatic lipid accumulation, oil red staining” value ([4]; control diet (groups 1 vs 2)) was “no significant change”. The “effect on ALT, hepatic TGs, LPS, fecal albumin and total bile acids” value ([4]; control diet groups, seladelpar prevention (group 2 vs 1)) was “does not significantly affect”, the ALT ([4]; group 2: control diet with seladelpar prevention, 10 mg/Kg/day oral in diet for 8 weeks) was 20.8 (3.5) U/L and the Total bile acids [4, 7] was 14.2 (0.6) μmol/100 g body weight. The “Hepatic TGs” value [4, 7] was 18.9 (1.8) mg/g, the “Plasma LPS” value [4, 7] was 787 (108) ng/mL and the “FA (fecal albumin)” value ([4]; group 2: control diet with seladelpar prevention, 10 mg/Kg/day oral) was 95 (12) ng/mg. The ALT ([4]; group 4: ethanol diet with seladelpar prevention, 10 mg/Kg/day oral in diet for 8 weeks, untreated ethanol group 3: 83.3 (16.7)) was 37.8 (4.1) U/L, the Total bile acids ([4]; group 4: ethanol diet with seladelpar prevention, 10 mg/Kg/day oral, 8 weeks, group 3: 23.7 (1.6)) was 16.5 (1.1) μmol/100 g body weight and the “Hepatic TGs” value ([4]; group 4: ethanol diet with seladelpar prevention, 10 mg/Kg/day oral, 8 weeks, group 3: 29.6 (2.0)) was 21.8 (1.3) mg/g. The “Plasma LPS” value ([4]; group 4: ethanol diet with seladelpar prevention, 10 mg/Kg/day oral, 8 weeks, group 3: 1064 (204)) was 723 (66) ng/mL, the “FA (fecal albumin)” value ([4]; group 4: ethanol diet with seladelpar prevention, 10 mg/Kg/day oral, group 3: 135 (15)) was 98 (8) ng/mg and the “FA (fecal albumin)” value ([4]; group 5: ethanol diet with seladelpar intervention, 10 mg/Kg/day oral from week 5, group 3: 135 (15)) was 112 (9) ng/mg. For the same molecule, the ALT ([4]; group 5: ethanol diet with seladelpar intervention, 10 mg/Kg/day oral in diet, weeks 5-8, untreated ethanol group 3: 83.3 (16.7)) was 30.9 (4.1) U/L, the Total bile acids ([4]; group 5: ethanol diet with seladelpar intervention, 10 mg/Kg/day oral, weeks 5-8, group 3: 23.7 (1.6)) was 16.0 (1.1) μmol/100 g body weight and the “Hepatic TGs” value ([4]; group 5: ethanol diet with seladelpar intervention, 10 mg/Kg/day oral, weeks 5-8, group 3: 29.6 (2.0)) was 20.5 (1.3) mg/g. The “Plasma LPS” value ([4]; group 5: ethanol diet with seladelpar intervention, 10 mg/Kg/day oral, weeks 5-8, group 3: 1064 (204)) was 634 (59) ng/mL.
